Test results from PMC5218480 (PLoS ONE, 2017).

System: MV-4-11 cells
Test: Gene expression microarray analysis (Affymetrix PrimeView) and GSEA
Format: cell-based, human
Parameters: RFU PODN (11730768_x_at) / Fold change /veh PODN (11730768_x_at) / RFU LINC00158 (11744669_a_at) / Fold change /veh LINC00158 (11744669_a_at) / RFU DUSP10 (11751237_a_at) / Fold change /veh DUSP10 (11751237_a_at) / RFU ID3 (11757404_x_at) / Fold change /veh ID3 (11757404_x_at) / RFU PLEKHG5 (11737974_s_at) / Fold change /veh PLEKHG5 (11737974_s_at) / RFU LRRC4B (11730491_at) / Fold change /veh LRRC4B (11730491_at) / RFU GIMAP4 (11747438_a_at) / Fold change /veh GIMAP4 (11747438_a_at) / RFU KRT8 (11758183_x_at) / Fold change /veh KRT8 (11758183_x_at) / RFU CNN1 (11734310_a_at) / Fold change /veh CNN1 (11734310_a_at) / RFU VPS37D (11726825_at) / Fold change /veh VPS37D (11726825_at) / RFU C10orf10 (11716522_x_at) / Fold change /veh C10orf10 (11716522_x_at) / RFU KIR2DL2 /// KIR2DL4 /// KIR2DL5A /// KIR2DL5B /// KIR2DS1 /// KIR2DS2 /// KIR2DS3 /// KIR2DS4 /// KIR3DL3 /// KIR3DL3 /// KIR3DS1 (11738374_at) / Fold change /veh KIR2DL2 /// KIR2DL4 /// KIR2DL5A /// KIR2DL5B /// KIR2DS1 /// KIR2DS2 /// KIR2DS3 /// KIR2DS4 /// KIR3DL3 /// KIR3DL3 /// KIR3DS1 (11738374_at) / RFU C1QL1 (11718748_at) / Fold change /veh C1QL1 (11718748_at) / RFU TMPRSS4 (11747572_a_at) / Fold change /veh TMPRSS4 (11747572_a_at) / RFU HAMP (11756126_x_at) / Fold change /veh HAMP (11756126_x_at) / RFU RNFT2 (11725882_a_at) / Fold change /veh RNFT2 (11725882_a_at) / RFU NR4A2 (11747474_a_at) / Fold change /veh NR4A2 (11747474_a_at) / RFU ABCC12 (11746883_a_at) / Fold change /veh ABCC12 (11746883_a_at) / RFU TMEM136 (11760407_x_at) / Fold change /veh TMEM136 (11760407_x_at) / RFU CLDN22 /// WWC2 (11732394_at) / Fold change /veh CLDN22 /// WWC2 (11732394_at) / RFU HLA-DPB1 (11760878_x_at) / Fold change /veh HLA-DPB1 (11760878_x_at) / RFU SPINT1 (11716480_a_at) / Fold change /veh SPINT1 (11716480_a_at) / RFU GAP43 (11754022_s_at) / Fold change /veh GAP43 (11754022_s_at) / RFU A4GNT (11735810_at) / Fold change /veh A4GNT (11735810_at) / RFU PRB3 (11715151_x_at) / Fold change /veh PRB3 (11715151_x_at) / RFU TUBB4B (11761932_at) / Fold change /veh TUBB4B (11761932_at) / RFU CAPN14 (11732068_a_at) / Fold change /veh CAPN14 (11732068_a_at) / RFU TMCC2 (11721928_a_at) / Fold change /veh TMCC2 (11721928_a_at) / RFU IRGQ (11745062_a_at) / Fold change /veh IRGQ (11745062_a_at) / RFU FAM174B (11720279_a_at) / Fold change /veh FAM174B (11720279_a_at) / RFU TMPRSS4 (11748680_a_at) / Fold change /veh TMPRSS4 (11748680_a_at) / RFU FAM212B (11763350_a_at) / Fold change /veh FAM212B (11763350_a_at) / RFU PLEKHG5 (11743358_a_at) / Fold change /veh PLEKHG5 (11743358_a_at) / RFU ZSCAN30 (11745921_a_at) / Fold change /veh ZSCAN30 (11745921_a_at) / RFU CMKLR1 (11741424_a_at) / Fold change /veh CMKLR1 (11741424_a_at) / RFU LOC101060620 /// MAPK8IP1 (11723275_at) / Fold change /veh LOC101060620 /// MAPK8IP1 (11723275_at) / RFU SPTSSB (11747773_x_at) / Fold change /veh SPTSSB (11747773_x_at) / RFU PRSS12 (11739890_at) / Fold change /veh PRSS12 (11739890_at) / RFU BIN1 (11741810_x_at) / Fold change /veh BIN1 (11741810_x_at) / RFU WNT11 (11732464_a_at) / Fold change /veh WNT11 (11732464_a_at) / RFU C10orf10 (11716521_a_at) / Fold change /veh C10orf10 (11716521_a_at) / RFU C5orf56 (11738089_at) / Fold change /veh C5orf56 (11738089_at) / RFU CYB561 (11721691_x_at) / Fold change /veh CYB561 (11721691_x_at) / RFU ANKRD19P (11752326_a_at) / Fold change /veh ANKRD19P (11752326_a_at) / RFU OR2T12 /// OR2T33 /// OR2T8 (11738714_s_at) / Fold change /veh OR2T12 /// OR2T33 /// OR2T8 (11738714_s_at) / RFU VCAN (11748164_a_at) / Fold change /veh VCAN (11748164_a_at) / RFU JSRP1 (11732532_at) / Fold change /veh JSRP1 (11732532_at) / RFU KRTAP10-11 (11738290_x_at) / Fold change /veh KRTAP10-11 (11738290_x_at) / RFU MYO3A (11730013_a_at) / Fold change /veh MYO3A (11730013_a_at) / RFU EBF3 (11725865_a_at) / Fold change /veh EBF3 (11725865_a_at) / RFU CAMK2N1 (11719241_x_at) / Fold change /veh CAMK2N1 (11719241_x_at) / RFU C5orf56 (11738088_a_at) / Fold change /veh C5orf56 (11738088_a_at) / RFU OLFML3 (11715873_a_at) / Fold change /veh OLFML3 (11715873_a_at) / RFU LOC100653217 /// NTM (11731650_a_at) / Fold change /veh LOC100653217 /// NTM (11731650_a_at) / RFU MAPK11 (11762145_a_at) / Fold change /veh MAPK11 (11762145_a_at) / RFU FIZ1 (11724087_x_at) / Fold change /veh FIZ1 (11724087_x_at) / RFU OASL (11726364_x_at) / Fold change /veh OASL (11726364_x_at) / RFU SOX15 (11748057_x_at) / Fold change /veh SOX15 (11748057_x_at) / RFU CD79A (11719716_a_at) / Fold change /veh CD79A (11719716_a_at) / RFU HIST1H1D (11736915_at) / Fold change /veh HIST1H1D (11736915_at) / RFU CASKIN2 (11723855_a_at) / Fold change /veh CASKIN2 (11723855_a_at) / RFU LOC730098 (11760151_x_at) / Fold change /veh LOC730098 (11760151_x_at) / RFU OR4N2 (11742367_at) / Fold change /veh OR4N2 (11742367_at) / RFU PRRT2 (11749266_a_at) / Fold change /veh PRRT2 (11749266_a_at) / RFU SNX32 (11753110_a_at) / Fold change /veh SNX32 (11753110_a_at) / RFU CDHR5 (11726645_a_at) / Fold change /veh CDHR5 (11726645_a_at) / RFU RCAN1 (11760418_a_at) / Fold change /veh RCAN1 (11760418_a_at) / RFU FAM167A (11723789_a_at) / Fold change /veh FAM167A (11723789_a_at) / RFU FAM26E (11764081_at) / Fold change /veh FAM26E (11764081_at) / RFU ISYNA1 (11749810_s_at) / Fold change /veh ISYNA1 (11749810_s_at) / RFU ACY1 (11761880_at) / Fold change /veh ACY1 (11761880_at) / RFU 11764098_at / Fold change /veh 11764098_at / RFU SAMD14 (11745864_x_at) / Fold change /veh SAMD14 (11745864_x_at) / RFU NPB (11741838_a_at) / Fold change /veh NPB (11741838_a_at) / RFU TMPRSS6 (11731388_a_at) / Fold change /veh TMPRSS6 (11731388_a_at) / RFU KRTAP10-2 (11738614_at) / Fold change /veh KRTAP10-2 (11738614_at) / RFU ARHGAP8 /// PRR5-ARHGAP8 (11727945_x_at) / Fold change /veh ARHGAP8 /// PRR5-ARHGAP8 (11727945_x_at) / RFU KRTAP5-7 /// NADSYN1 (11734609_at) / Fold change /veh KRTAP5-7 /// NADSYN1 (11734609_at) / RFU RASL12 (11751679_a_at) / Fold change /veh RASL12 (11751679_a_at) / RFU CDKN2B (11736163_a_at) / Fold change /veh CDKN2B (11736163_a_at) / RFU PRF1 (11729649_at) / Fold change /veh PRF1 (11729649_at) / RFU, ZNF638 /// ZNF638-IT1 / Fold change vs veh, ZNF638 /// ZNF638-IT1 / RFU, PANK3 / Fold change vs veh, PANK3 / RFU, SH3YL1 / Fold change vs veh, SH3YL1 / RFU, ZEB2 / Fold change vs veh, ZEB2 / RFU, NRIP1 / Fold change vs veh, NRIP1 / RFU, PTTG1IP / Fold change vs veh, PTTG1IP / RFU, CAPN2 / Fold change vs veh, CAPN2 / RFU, MED14 / Fold change vs veh, MED14 / RFU, SNORA58 / Fold change vs veh, SNORA58 / RFU, C1orf63 / Fold change vs veh, C1orf63 / RFU, LRRFIP1 / Fold change vs veh, LRRFIP1 / RFU, NDUFAF7 / Fold change vs veh, NDUFAF7 / RFU, SLC12A2 / Fold change vs veh, SLC12A2 / RFU, IBTK / Fold change vs veh, IBTK / RFU, ESF1 / Fold change vs veh, ESF1 / Fold change vs veh, TMEM50B / RFU, TAOK1 / Fold change vs veh, TAOK1 / RFU, ACBD3 / Fold change vs veh, ACBD3 / RFU, TMA16 / Fold change vs veh, TMA16 / RFU, RWDD3 / Fold change vs veh, RWDD3 / RFU, BCAT1 / Fold change vs veh, BCAT1 / RFU, EDEM3 / Fold change vs veh, EDEM3 / RFU, TMEM33 / Fold change vs veh, TMEM33 / RFU, WDR75 / Fold change vs veh, WDR75 / RFU, AHCTF1 / Fold change vs veh, AHCTF1 / RFU, TFRC / Fold change vs veh, TFRC / RFU, ZDHHC17 / Fold change vs veh, ZDHHC17 / RFU, NOM1 / Fold change vs veh, NOM1 / RFU, ARL8B / Fold change vs veh, ARL8B / RFU, ZBTB11 / Fold change vs veh, ZBTB11 / RFU, TAMM41 / Fold change vs veh, TAMM41 / RFU, KIAA1704 /// LOC100996395 / Fold change vs veh, KIAA1704 /// LOC100996395 / RFU, ING1 / Fold change vs veh, ING1 / RFU, TRMT61B / Fold change vs veh, TRMT61B / RFU, FUBP3 / Fold change vs veh, FUBP3 / RFU, TP53 / Fold change vs veh, TP53 / RFU, TNKS2 / Fold change vs veh, TNKS2 / RFU, ZFP14 / Fold change vs veh, ZFP14 / RFU, ACTR2 / Fold change vs veh, ACTR2 / RFU, PPP3R1 / Fold change vs veh, PPP3R1 / RFU, PIK3R1 / Fold change vs veh, PIK3R1 / RFU, HNRNPA1 / Fold change vs veh, HNRNPA1 / RFU, RNF170 / Fold change vs veh, RNF170 / RFU, ZNF28 / Fold change vs veh, ZNF28 / RFU, RNGTT / Fold change vs veh, RNGTT / RFU, OGT / Fold change vs veh, OGT / RFU, BRD1 / Fold change vs veh, BRD1 / RFU, MARS / Fold change vs veh, MARS / RFU, ZNF655 / Fold change vs veh, ZNF655 / RFU, FAHD1 / Fold change vs veh, FAHD1 / RFU, BDP1 / Fold change vs veh, BDP1 / RFU, LRRCC1 / Fold change vs veh, LRRCC1 / RFU, ARID1A / Fold change vs veh, ARID1A / RFU, ZNF146 / Fold change vs veh, ZNF146 / RFU, ZNF330 / Fold change vs veh, ZNF330 / RFU, GPN3 / Fold change vs veh, GPN3 / RFU, C9orf123 / Fold change vs veh, C9orf123 / RFU, N4BP2L2 / Fold change vs veh, N4BP2L2 / RFU, ARFIP1 / Fold change vs veh, ARFIP1 / RFU, FAM179B / Fold change vs veh, FAM179B / RFU, BCL10 / Fold change vs veh, BCL10 / RFU, UHRF1BP1L / Fold change vs veh, UHRF1BP1L / RFU, BET1 / Fold change vs veh, BET1 / RFU, CNOT2 / Fold change vs veh, CNOT2 / RFU, ZNF268 / Fold change vs veh, ZNF268 / Fold change vs veh, ZNF507 / RFU, DGCR2 / Fold change vs veh, DGCR2 / RFU, WDSUB1 / Fold change vs veh, WDSUB1 / Fold change vs veh, HSP90B1 /// MIR3652 / RFU, ADSS / Fold change vs veh, ADSS / RFU, GK / Fold change vs veh, GK / RFU, ZNF148 / Fold change vs veh, ZNF148 / RFU, TAF9 / Fold change vs veh, TAF9 / RFU, SLC1A5 / Fold change vs veh, SLC1A5 / RFU, SLMO2 / Fold change vs veh, SLMO2 / RFU, ABCC4 / Fold change vs veh, ABCC4 / RFU, LOC101060439 /// RAP1B / Fold change vs veh, LOC101060439 /// RAP1B / RFU, RFX7 / Fold change vs veh, RFX7 / RFU, GTPBP10 / Fold change vs veh, GTPBP10 / RFU, CNEP1R1 / Fold change vs veh, CNEP1R1 / RFU, BIVM-ERCC5 /// ERCC5 / Fold change vs veh, BIVM-ERCC5 /// ERCC5 / RFU, ILF3 / Fold change vs veh, ILF3 / RFU 11762660_at / Fold change /veh 11762660_at / RFU VCAN (11757783_s_at) / Fold change /veh VCAN (11757783_s_at) / RFU DDX43 (11728927_at) / Fold change /veh DDX43 (11728927_at) / RFU KRT8 (11758188_x_at) / Fold change /veh KRT8 (11758188_x_at) / RFU NKD1 (11759106_at) / Fold change /veh NKD1 (11759106_at) / RFU SRD5A1 (11742802_a_at) / Fold change /veh SRD5A1 (11742802_a_at) / RFU TPSAB1 /// TPSB2 (11721975_s_at) / Fold change /veh TPSAB1 /// TPSB2 (11721975_s_at) / RFU GSTM3 (11746129_a_at) / Fold change /veh GSTM3 (11746129_a_at) / RFU IL23R (11737362_x_at) / Fold change /veh IL23R (11737362_x_at) / RFU TMEM51 (11727254_a_at) / Fold change /veh TMEM51 (11727254_a_at) / RFU PIWIL2 (11732686_x_at) / Fold change /veh PIWIL2 (11732686_x_at) / RFU ORM1 (11744905_x_at) / Fold change /veh ORM1 (11744905_x_at) / RFU CCDC152 (11743942_at) / Fold change /veh CCDC152 (11743942_at) / RFU ECM1 (11717891_a_at) / Fold change /veh ECM1 (11717891_a_at) / RFU IL23R (11748794_a_at) / Fold change /veh IL23R (11748794_a_at) / RFU TNFAIP8L3 (11732012_x_at) / Fold change /veh TNFAIP8L3 (11732012_x_at) / RFU MBOAT4 (11741988_at) / Fold change /veh MBOAT4 (11741988_at) / RFU 11764193_at / Fold change /veh 11764193_at / RFU TMEM53 (11763286_at) / Fold change /veh TMEM53 (11763286_at) / RFU MAGEB2 (11727129_at) / Fold change /veh MAGEB2 (11727129_at) / RFU TMEM200A (11744735_a_at) / Fold change /veh TMEM200A (11744735_a_at) / RFU CCDC152 (11751479_a_at) / Fold change /veh CCDC152 (11751479_a_at) / RFU FAM211A (11726209_a_at) / Fold change /veh FAM211A (11726209_a_at) / RFU RGS16 (11746705_a_at) / Fold change /veh RGS16 (11746705_a_at) / RFU VCAN (11755009_s_at) / Fold change /veh VCAN (11755009_s_at) / RFU RHOB (11743442_s_at) / Fold change /veh RHOB (11743442_s_at) / RFU RGS16 (11720943_a_at) / Fold change /veh RGS16 (11720943_a_at) / RFU RGS16 (11720944_at) / Fold change /veh RGS16 (11720944_at) / RFU, VPS4B / Fold change vs veh, VPS4B / RFU, CREB1 / Fold change vs veh, CREB1 / RFU, DNAJC13 / Fold change vs veh, DNAJC13 / RFU, GNAQ / Fold change vs veh, GNAQ / RFU, CDK5R1 / Fold change vs veh, CDK5R1 / RFU, ZRANB3 / Fold change vs veh, ZRANB3 / RFU, CUL4A / Fold change vs veh, CUL4A / RFU, CCNY / Fold change vs veh, CCNY / RFU, UFL1 / Fold change vs veh, UFL1 / RFU, COG3 / Fold change vs veh, COG3 / RFU, DIAPH2 / Fold change vs veh, DIAPH2 / RFU, SKA2 / Fold change vs veh, SKA2 / RFU, AFF3 / Fold change vs veh, AFF3 / RFU, LMF1 / Fold change vs veh, LMF1 / RFU, IPO11 / Fold change vs veh, IPO11 / RFU, DFFB / Fold change vs veh, DFFB / RFU, FOXP1 / Fold change vs veh, FOXP1 / RFU, CARD8 / Fold change vs veh, CARD8 / RFU, STRN3 / Fold change vs veh, STRN3 / RFU, ADK / Fold change vs veh, ADK / RFU, RASSF2 / Fold change vs veh, RASSF2 / RFU, WIPF1 / Fold change vs veh, WIPF1 / RFU, LARP1B / Fold change vs veh, LARP1B / RFU, RASA1 / Fold change vs veh, RASA1 / RFU, RB1 / Fold change vs veh, RB1 / RFU, PPFIA1 / Fold change vs veh, PPFIA1 / RFU, MAT2A / Fold change vs veh, MAT2A / RFU, CCT5 / Fold change vs veh, CCT5 / RFU, WDR92 / Fold change vs veh, WDR92 / RFU, CUX1 / Fold change vs veh, CUX1 / RFU, TTC7A / Fold change vs veh, TTC7A / RFU, TMEM135 / Fold change vs veh, TMEM135 / RFU, DEPTOR / Fold change vs veh, DEPTOR / RFU, CPM / Fold change vs veh, CPM / RFU, DNAJB6 / Fold change vs veh, DNAJB6 / RFU, CACNA2D3 / Fold change vs veh, CACNA2D3 / RFU, DTX4 / Fold change vs veh, DTX4 / RFU, TFCP2 / Fold change vs veh, TFCP2 / RFU, GMCL1 /// GMCL1P1 / Fold change vs veh, GMCL1 /// GMCL1P1 / RFU, AEBP2 / Fold change vs veh, AEBP2 / RFU, SNHG1 /// SNORD22 /// SNORD25 /// SNORD26 /// SNORD27 /// SNORD28 /// SNORD29 /// SNORD31 / Fold change vs veh, SNHG1 /// SNORD22 /// SNORD25 /// SNORD26 /// SNORD27 /// SNORD28 /// SNORD29 /// SNORD31 / Fold change (Aza/veh), C12orf56 (ProbeSet 11735607_a_at) / Fold change (ACY-1035/veh), C12orf56 (ProbeSet 11735607_a_at) / Fold change (Aza/veh), FGFR1OP (ProbeSet 11751329_s_at) / Fold change (ACY-1035/veh), FGFR1OP (ProbeSet 11751329_s_at) / Fold change (Aza/veh), VPS36 (ProbeSet 11739960_a_at) / Fold change (ACY-1035/veh), VPS36 (ProbeSet 11739960_a_at) / RFU SYPL1 (11715823_x_at) / Fold change /veh SYPL1 (11715823_x_at) / RFU IGFBP7 (11715501_s_at) / Fold change /veh IGFBP7 (11715501_s_at) / RFU REEP3 (11722064_at) / Fold change /veh REEP3 (11722064_at) / RFU IGLL1 (11728026_x_at) / Fold change /veh IGLL1 (11728026_x_at): dose or concentration left out as unconfirmed
Conditions: ProbeSet 11749781_s_at; LIST B

SMILES: Nc1ccc(-c2cccs2)cc1NC(=O)c1ccc2c(c1)cc(C1CC1)n2CCN1CCOCC1 [ACY-1035]
- Fold change vs veh, BCAT1: 0.87
